Experimental data reported in patent US20100286024A1, “Insulinotropic compounds and uses thereof” (priority 2005, published 2010).
One block for each compound: values may come before it. No end group written: not given here.

Columns and labels:
[1] = Control study: chemical stability in PBS/triethanolamine without DPP-IV; format: physicochemical; conditions: PBS/TEthA, pH 7.5, 37°, no DPP-IV; for remaining at 22 h / remaining at 47 h: PBS/triethanolamine solution without DPP-IV, read-out: percentage of peptide remaining
Description: In the control study, peptides were incubated with PBS/triethanolamine solution in the absence of DPP-IV to measure their chemical stability.

[2] = biological target: DPP-IV (Homo sapiens, UniProt P27487); assay: Dipeptidyl Peptidase IV (DPP-IV) digestion, stability by RP-HPLC (Example 10); format: in vitro ADME; conditions: DPP-IV (isolated peptidase), PBS/TEthA, pH 7.5, 37°, DPP-IV, read-out: percentage of analogue remaining
Description: Their stabilities were monitored by RP-HPLC, noting the disappearance of the intact sequence and appearance of a species missing the N terminal dipeptide or similar fragment.

[3] = system: beta TC-6 cell line; assay: Insulin release assay (insulin ELISA); format: cell-based, mouse; conditions: for Insulin release: 5 mM glucose, 30 minutes, Beta-TC-6 cells, cells only 1.37-3.67; for Activity of 3 μM of each peptide as percentage of insulin release by cells only / Activity of 15 μM of each peptide as percentage of insulin release by cells only: cells alone=100%
Description: This was derived from a pancreatic tumor (insulinoma) arising in a transgenic mouse.
Beta-TC-6 cells were purchased from A.T.C.C. (A.T.C.C. number CCL-11506; Manassas, Va., U.S.A.). Beta-TC-6 cells were cultured in Dulbecco's Modified Eagle's medium supplemented with 15% (v/v) heat-inactivated foetal bovine serum, 1% (v/v) glutamine, 0.45% (w/v) glucose and 0.15% (w/v) sodium bicarbonate at 37° C. in a humidified 5% CO2 atmosphere. Beta-TC-6 cells form islands and the monolayer never becomes confluent; cells were passaged at 70% confluence (7 days from seeding) at a subcultivation ratio of 1:4. The monolayer was disrupted from the surface of the culture flask with 0.25% (w/v) Trypsin-0.53 mM EDTA.
Beta-TC-6 cells were cultured in 12 well plates for between 4-8 days prior to use. Cells were cultured in Krebs-Ringer (10 mM Hepes, pH 7.4, 136 mM NaCl, 4.7 mM KCl and 1.25 mM MgSO4) supplemented with 5 mM glucose for 1 hr at 37° C. in a humidified 5% CO2 atmosphere. This medium was removed, cells washed with Krebs-Ringer. Beta-TC-6 cells were then cultured in 1 ml per well of Krebs-Ringer supplemented with 5 mM glucose and 0, 0.12, 0.6, 3 and 15 μM of peptide in duplicate for 30 minutes at 37° C. in a humidified 5% CO2 atmosphere. Medium was removed, diluted 1:5, and insulin concentration determined using an insulin ELISA kit (Mercodia, Uppsala, Sweden) according to the manufacturer's protocol. Beta-TC-6 cells were washed three times with ice-cold PBS and extracted into 0.5 ml lysis buffer (62.5 mM Tris, pH 7.5, and 1%, v/v, SDS) per well. Protein concentration was determined by Lowry assay. […] Only single-sided p values are shown.

[4] = biological target: GLP-1 receptor (mouse) (UniProt O35659)
[5] = system: dipeptidyl peptidase IV; assay: DPP-IV assay (Example 5), HPLC/ES-MS; format: in vitro ADME; conditions: 11 milliunits DPP-IV, 50 mM triethanolamine buffer pH 7.8, 37° C., HPLC and ES-MS
Description: J. Bailey, F. P. M. O'Harte, and P. R. Flatt. […] Biological Chemistry. 385, pp 169-177.
Briefly, 100-200 microgams of each peptide was dissolved in 0.5 ml of 50 mM triethanolamine buffer, pH 7.8. To this was added a 10 microlitre solution of 11 milliunits DPP-IV (Sigma) and the solutions incubated at 37° C. for up to 42 hours. […] The incubations were terminated by addition of 5 microlitres TFA to each tube and 50 microlitre of each were injected onto a reversed phase 4.6×250 mm C18 HPLC column, eluting a gradient of 20%-45% acetonitrile in 0.1% TFA/water over 25 minutes. […] After 42 hours, the 2 analogues slowly degraded to a product that gave a mass spectrum consistent with the mass of the 9-37 sequence, indicating longer term instability of the urea bond. This represented as much as 15% of the product by HPLC. This degradation appeared to be non-DPP-IV related, since samples without enzyme gave the same profile.

[6] = biological target: L-His-NH-NH-CH(CH3)-C(O)-Glu9-37 (SP008) (Homo sapiens)
[7] = biological target: L-His-NH-NH-CH2-C(O)-Glu9-37 (SP006) (Homo sapiens)
[8] = biological target: Native GLP-1 7-37 (Homo sapiens)
[9] = biological target: L-His-L-NH-CH(CH3)-CH2-NH-O-CH2-C(O)-Glu9-37 (SP005) (Homo sapiens)
[10] = biological target: L-His-L-Ala-NH-NH-CH2-C(O)-Glu9-37 (SP007) (Homo sapiens)

Chain of DPP-IV (P27487 whole entry, species assumed): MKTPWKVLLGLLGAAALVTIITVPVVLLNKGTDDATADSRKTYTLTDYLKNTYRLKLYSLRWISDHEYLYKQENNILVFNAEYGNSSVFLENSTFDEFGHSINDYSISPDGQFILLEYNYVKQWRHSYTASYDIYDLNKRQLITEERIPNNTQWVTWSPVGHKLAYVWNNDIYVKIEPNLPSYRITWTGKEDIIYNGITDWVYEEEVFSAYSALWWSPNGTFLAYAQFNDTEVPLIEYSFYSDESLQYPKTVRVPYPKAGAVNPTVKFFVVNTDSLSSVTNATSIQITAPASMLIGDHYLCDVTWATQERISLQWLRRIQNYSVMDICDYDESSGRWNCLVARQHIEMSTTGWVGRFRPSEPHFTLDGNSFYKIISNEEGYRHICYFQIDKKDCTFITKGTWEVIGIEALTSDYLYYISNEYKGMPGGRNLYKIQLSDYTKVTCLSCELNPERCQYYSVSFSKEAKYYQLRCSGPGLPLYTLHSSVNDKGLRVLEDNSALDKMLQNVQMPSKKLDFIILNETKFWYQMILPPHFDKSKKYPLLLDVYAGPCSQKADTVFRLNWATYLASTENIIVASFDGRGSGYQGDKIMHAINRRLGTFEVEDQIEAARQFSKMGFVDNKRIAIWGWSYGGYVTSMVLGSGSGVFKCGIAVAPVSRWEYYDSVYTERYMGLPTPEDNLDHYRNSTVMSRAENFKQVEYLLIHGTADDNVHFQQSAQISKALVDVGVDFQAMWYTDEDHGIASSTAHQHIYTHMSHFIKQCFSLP

- remaining at 22 h [1]: 95%
- remaining at 47 h ([1]; 47 hr): 89%
- remaining at 22 h [2]: 95%
- remaining at 47 h [2]: 93%
Compound: CC[C@H](C)[C@H](NC(=O)[C@H](Cc1ccccc1)NC(=O)[C@H](CCC(=O)O)NC(=O)[C@H](CCCCN)NC(=O)[C@H](C)NC(=O)[C@H](C)NC(=O)[C@H](CCC(N)=O)NC(=O)CNC(=O)[C@H](CCC(=O)O)NC(=O)[C@H](CC(C)C)NC(=O)[C@H](Cc1ccc(O)cc1)NC(=O)[C@H](CO)NC(=O)[C@H](CO)NC(=O)[C@@H](NC(=O)[C@H](CC(=O)O)NC(=O)[C@H](CO)NC(=O)[C@@H](NC(=O)[C@H](Cc1ccccc1)NC(=O)[C@@H](NC(=O)CNC(=O)[C@H](CCC(=O)O)NC(=O)CONC[C@H](C)NC(=O)[C@@H](N)Cc1c[nH]cn1)[C@@H](C)O)[C@@H](C)O)C(C)C)C(=O)N[C@@H](C)C(=O)N[C@@H](Cc1c[nH]c2ccccc12)C(=O)N[C@@H](CC(C)C)C(=O)N[C@H](C(=O)N[C@@H](CCCCN)C(=O)NCC(=O)N[C@@H](CCCNC(=N)N)C(=O)NCC(=O)O)C(C)C [SP005, L-His-L-NH—CH(CH3)—CH2—NH—O—CH2—C(O)-Glu9-37]
- Insulin release ([3]; 3 μM peptide): 2.25 ng/min/mg
- Activity of 3 μM of each peptide as percentage of insulin release by cells only ([3]; 3 μM peptide): 171 ± 53%
- Insulin release ([3]; 15 μM peptide): 5.26 ng/min/mg
- Activity of 15 μM of each peptide as percentage of insulin release by cells only ([3]; 15 μM peptide): 358 ± 128%

- percentage of peptide remaining ([1]; 47 hr): 88%
- remaining at 22 h [1]: 88%
- remaining at 22 h [2]: 88%
- remaining at 47 h [2]: 87%
Compound: CC[C@H](C)[C@H](NC(=O)[C@H](Cc1ccccc1)NC(=O)[C@H](CCC(=O)O)NC(=O)[C@H](CCCCN)NC(=O)[C@H](C)NC(=O)[C@H](C)NC(=O)[C@H](CCC(N)=O)NC(=O)CNC(=O)[C@H](CCC(=O)O)NC(=O)[C@H](CC(C)C)NC(=O)[C@H](Cc1ccc(O)cc1)NC(=O)[C@H](CO)NC(=O)[C@H](CO)NC(=O)[C@@H](NC(=O)[C@H](CC(=O)O)NC(=O)[C@H](CO)NC(=O)[C@@H](NC(=O)[C@H](Cc1ccccc1)NC(=O)[C@@H](NC(=O)CNC(=O)[C@H](CCC(=O)O)NC(=O)CNNC(=O)[C@@H](N)Cc1c[nH]cn1)[C@@H](C)O)[C@@H](C)O)C(C)C)C(=O)N[C@@H](C)C(=O)N[C@@H](Cc1c[nH]c2ccccc12)C(=O)N[C@@H](CC(C)C)C(=O)N[C@H](C(=O)N[C@@H](CCCCN)C(=O)NCC(=O)N[C@@H](CCCNC(=N)N)C(=O)NCC(=O)O)C(C)C [SP006, L-His-NH-NH-CH2-C(O)-Glu9-37]
- Insulin release ([3]; 3 μM peptide): 3.86 ng/min/mg
- Activity of 3 μM of each peptide as percentage of insulin release by cells only ([3]; 3 μM peptide): 154 ± 25%
- Insulin release ([3]; 15 μM peptide): 8.88 ng/min/mg
- Activity of 15 μM of each peptide as percentage of insulin release by cells only ([3]; 15 μM peptide): 330 ± 89%

- remaining at 22 h [1]: 91%
- remaining at 47 h ([1]; 47 hr): 77%
- remaining at 22 h [2]: 95%
- remaining at 47 h [2]: 93%
Compound: CC[C@H](C)[C@H](NC(=O)[C@H](Cc1ccccc1)NC(=O)[C@H](CCC(=O)O)NC(=O)[C@H](CCCCN)NC(=O)[C@H](C)NC(=O)[C@H](C)NC(=O)[C@H](CCC(N)=O)NC(=O)CNC(=O)[C@H](CCC(=O)O)NC(=O)[C@H](CC(C)C)NC(=O)[C@H](Cc1ccc(O)cc1)NC(=O)[C@H](CO)NC(=O)[C@H](CO)NC(=O)[C@@H](NC(=O)[C@H](CC(=O)O)NC(=O)[C@H](CO)NC(=O)[C@@H](NC(=O)[C@H](Cc1ccccc1)NC(=O)[C@@H](NC(=O)CNC(=O)[C@H](CCC(=O)O)NC(=O)[C@H](C)NNC(=O)[C@@H](N)Cc1c[nH]cn1)[C@@H](C)O)[C@@H](C)O)C(C)C)C(=O)N[C@@H](C)C(=O)N[C@@H](Cc1c[nH]c2ccccc12)C(=O)N[C@@H](CC(C)C)C(=O)N[C@H](C(=O)N[C@@H](CCCCN)C(=O)NCC(=O)N[C@@H](CCCNC(=N)N)C(=O)NCC(=O)O)C(C)C [SP008, L-His-NH—NH—CH(CH3)—C(O)-Glu9-37]
- Insulin release ([3]; 3 μM peptide): 4.35 ng/min/mg
- Activity of 3 μM of each peptide as percentage of insulin release by cells only ([3]; 3 μM peptide): 112 ± 44%
- Insulin release ([3]; 15 μM peptide): 6.20 ng/min/mg
- Activity of 15 μM of each peptide as percentage of insulin release by cells only ([3]; 15 μM peptide): 170 ± 48%

The next lines start with the compound.

Compound: GLP-1 NH2-D-His-D-Ala-Urea-9-37 (SP002) (peptide)
- Activity of 15 µM of each peptide as percentage of insulin release by cells only (beta TC-6 cells) (% of insulin release by cells only) [4]: 254

Compound: GLP-1 NH2-L-His-L-Ala-urea-9-37 (SP001) (peptide)
- Activity of 15 µM of each peptide as percentage of insulin release by cells only (beta TC-6 cells) (% of insulin release by cells only) [4]: 100

Compound: Glu Gly Thr Phe Thr Ser Asp Val Ser Ser Tyr Leu Glu Gly Gln Ala Ala Lys Glu Phe Ile Ala Trp Leu Val Lys Gly Arg Gly (EGTFTSDVSSYLEGQAAKEFIAWLVKGRG; listed as Homo sapiens) [Native GLP-1 9-37, reference compound]
- Insulin release ([3]; 15 μM peptide): 3.25 ng/min/mg
- Activity of 15 μM of each peptide as percentage of insulin release by cells only ([3]; 15 μM peptide): 123 ± 17%

Compound: HAEGTFTSDVSSYLEG [GLP-1 7-22]
- state of peptide after 18 hr incubation with DPP-IV [5]: completely cleaved

Compound: L-His-L-Ala-NH-NH-CH2-C(O)-Glu9-37 (SP007) (peptide)
- Activity of 15 µM of each peptide as percentage of insulin release by cells only (beta TC-6 cells) (% of insulin release by cells only) [4]: 235

Compound: L-His-L-NH-CH(CH3)-CH2-NH-O-CH2-C(O)-Glu9-37 (SP005) (peptide)
- Activity of 15 µM of each peptide as percentage of insulin release by cells only (beta TC-6 cells) (% of insulin release by cells only) [4]: 358

Compound: L-His-NH-NH-CH2-C(O)-Glu9-37 (SP006) (peptide)
- Activity of 15 µM of each peptide as percentage of insulin release by cells only (beta TC-6 cells) (% of insulin release by cells only) [4]: 330

Compound: L-His-NH-NH-CH(CH3)-C(O)-Glu9-37 (SP008) (peptide)
- Activity of 15 µM of each peptide as percentage of insulin release by cells only (beta TC-6 cells) (% of insulin release by cells only) [4]: 170

Compound: dipeptidyl peptidase IV (DPP-IV) (Sigma) (enzyme)
- percentage of each analogue remaining after incubation with DPP-IV (RP-HPLC), 47 hr [6]: 93 % remaining
- percentage of each analogue remaining after incubation with DPP-IV (RP-HPLC), 47 hr [7]: 87 % remaining
- percentage of each analogue remaining after incubation with DPP-IV (RP-HPLC), 22 hr [8]: < 5 % remaining
- percentage of each analogue remaining after incubation with DPP-IV (RP-HPLC), 47 hr [9]: 93 % remaining
- percentage of each analogue remaining after incubation with DPP-IV (RP-HPLC), 22 hr [10]: < 5 % remaining
